Marks after values point to notes of the source that are not given here.
How the values were obtained:
Format in all cases: in vivo
[1] = system: SD rats; experiment: Effect on an IBS model (2): wrap-restraint stress, weight of fecal pellets, oral administration; settings: for Inhibition (%) vs. control: weight of fecal pellets in one hour, male SD rats; for defecation accelerated by stress: result in words, summary of Test Examples 2 and 3, oral dose levels 10 and 30 mg/kg
Description: Six-week-old male SD rats, non-fasted, were used in groups of 8 individuals. In accordance with the method of Williams et al. (Gastroenterology, 1988; 94:611-621), animals in the control group and treatment groups were loaded with a wrap-restraint stress while those in the normal group were not loaded and weight (g) of the fecal pellets in the subsequent one-hour period was determined. In the treatment groups, a predetermined dose of the corresponding test drug was administered orally 60 minutes before stress loading. As reference control drugs, N-methyl-N-[(2RS,11bSR)-1,3,4,6,7,11b-hexahydro-2H-benzo[a]quinolizin-2-yl]propanesulfonamide hydrochloride (hereinafter referred to as Compound A) and N-(2-methanesulfonamidoethyl)-N-[(2RS,11bSR)-1,3,4,6,7,11b-hexahydro-2H-benzo[a]quinolizin-2-yl]benzenesulfonamide hydrochloride (hereinafter referred to as compound B), both of which are described in Japanese Laid-open S62-67031 as having gastrointestinal peristalsis-modulating activity were used. The inhibition rate (%) was calculated by means of the following equation. Inhibition rate = [(C-D)/(C-N)] x 100 [formula] where C represents the weight of the fecal pellets in the control group, D represents the weight of the fecal pellets in the treatment group, and N represents the weight of the fecal pellets in the normal group. Statistical significance of the treatment group versus the control group was tested by Dunnett's multiple comparison.

[2] = system: SD rats; experiment: Effect on an IBS model (3): water avoidance stress, number of fecal pellets, oral administration; settings: number of fecal pellets in one hour, male SD rats
Description: Six-week-old male SD rats were used in groups of 8 individuals. In accordance with the method of Enck et al. (Gut, 1989; 30:455-459), animals in the control group and treatment groups were loaded with water avoidance stress, while those in the normal groups were not loaded and the number of fecal pellets during the subsequent one-hour period was determined. In the treatment groups, a predetermined dose of the corresponding test drug was administered orally 60 minutes before stress loading. As reference control drugs, Compound A and Compound B mentioned above were used. The inhibition rate (%) was calculated by means of the following equation. Inhibition rate (%) = [(NC-ND)/(NC-NN)] x 100 [formula] where NC represents the number of the fecal pellets in the control group, ND represents the number of the fecal pellets in the treatment group, and NN represents the number of the fecal pellets in the normal group. Statistical significance of the treatment group versus the control group was tested by Dunnett's multiple comparison.

[3] = system: SD rats; experiment: Effect on an IBS model (1): wrap-restraint stress, weight of fecal pellets, subcutaneous administration; settings: 3 mg/kg subcutaneously 30 minutes before wrap-restraint stress, weight of fecal pellets in one hour, male SD rats
Description: Six-week-old male SD rats, non-fasted, were used in groups of 8 individuals. In accordance with the method of Williams et al. (Gastroenterology, 1988; 94:611-621), animals in the control group and treatment groups were loaded with a wrap-restraint stress while those in the normal group were not loaded and weight (g) of fecal pellets in the subsequent one-hour period was determined. In the treatment groups, a predetermined dose of the corresponding test drug was administered subcutaneously 30 minutes before stress loading. The inhibition rate (%) was calculated by means of the following equation. Inhibition rate = [(C-D)/(C-N)] x 100 [formula] where C represents the weight of the fecal pellets in the control group, D represents the weight of the fecal pellets in the treatment group, and N represents the weight of the fecal pellets in the normal group. Statistical significance of the treatment group versus the control group was tested by Dunnett's multiple comparison.

[4] = system: ddY mice; experiment: Acute toxicity test; settings: fasted male ddY mice, deaths during one week
Description: Six-week-old male ddY mice were used in groups of 5 individuals. The animals were fasted from the previous day (16-18 hours before the experiment) and a predetermined dose of the compound of the invention was administered orally. The number of deaths during the subsequent one-week period was investigated.

[5] = 10 mg/kg orally 60 minutes before wrap-restraint stress
[6] = 30 mg/kg orally 60 minutes before wrap-restraint stress
[7] = 30 mg/kg orally 60 minutes before water avoidance stress
[8] = 10 mg/kg orally 60 minutes before wrap-restraint stress, hydrochloride

Structure (SMILES): CCCS(=O)(=O)N(C)[C@@H]1CCN2CCc3ccccc3[C@@H]2C1.Cl (racemic) [Compound A, N-methyl-N-[(2RS,11bSR)-1,3,4,6,7,11b-hexahydro-2H-benzo[a]quinolizin-2-yl]propanesulfonamide hydrochloride, reference compound]
- Inhibition (%) vs. control [1, 5]: -1.2%
- Inhibition (%) vs. control [1, 6]: 1.4%
- defecation accelerated by stress [1]: did not inhibit defecation accelerated by stress
- Inhibition (%) vs. control [2, 7]: -20.7%

Structure (SMILES): CS(=O)(=O)NCCN([C@@H]1CCN2CCc3ccccc3[C@@H]2C1)S(=O)(=O)c1ccccc1.Cl (racemic) [Compound B, N-(2-methanesulfonamidoethyl)-N-[(2RS,11bSR)-1,3,4,6,7,11b-hexahydro-2H-benzo[a]quinolizin-2-yl]benzenesulfonamide hydrochloride, reference compound]
- Inhibition (%) vs. control [1, 5]: -4.7%
- Inhibition (%) vs. control [1, 6]: -30.0%
- defecation accelerated by stress [1]: did not inhibit defecation accelerated by stress
- Inhibition (%) vs. control [2, 7]: -58.3%

Structure (SMILES): COc1ccc2c(c1)CCN1CC[C@@H](N(C)S(C)(=O)=O)C[C@@H]21.Cl (racemic) [Compound No. 1, N-Methyl-N-[(2RS,11bSR)-9-methoxy-1,3,4,6,7,11b-hexahydro-2H-benzo[a]quinolizin-2-yl]methanesulfonamide hydrochloride]
- Inhibition (%) vs. control ([3]; hydrochloride): 97.7** %
- Inhibition (%) vs. control [1, 8]: 53.2* %
- Inhibition (%) vs. control [1, 6]: 96.6** %
- Inhibition (%) vs. control [2, 7]: 81.8* %
- Dead/Total ([4]; 100 mg/kg orally): 0/5

Structure (SMILES): COc1ccc(S(=O)(=O)N(C)[C@@H]2CCN3CCc4cc(OC)ccc4[C@@H]3C2)cc1.Cl (racemic) [Compound No. 6, N-Methyl-N-[(2RS,11bSR)-9-methoxy-1,3,4,6,7,11b-hexahydro-2H-benzo[a]quinolizin-2-yl]-4-methoxybenzenesulfonamide hydrochloride]
- Inhibition (%) vs. control [3]: 86.2** %
- Dead/Total ([4]; 100 mg/kg orally): 0/5

Structure (SMILES): COc1ccc2c(c1)CCN1CC[C@@H](N(C)S(=O)(=O)c3ccccc3)C[C@@H]21.Cl (racemic) [Compound No. 7, N-methyl-N-[(2RS,11bSR)-9-methoxy-1,3,4,6,7,11b-hexahydro-2H-benzo[a]quinolizin-2-yl]benzenesulfonamide hydrochloride]
- Inhibition (%) vs. control [3]: 76.6** %

Structure (SMILES): COc1ccc2c(c1)CCN1CC[C@@H](N(C)S(=O)(=O)c3ccc(F)cc3)C[C@@H]21.Cl (racemic) [Compound No. 13, N-methyl-N-[(2RS,11bSR)-9-methoxy-1,3,4,6,7,11b-hexahydro-2H-benzo[a]quinolizin-2-yl]-4-fluorobenzenesulfonamide hydrochloride]
- Inhibition (%) vs. control [3]: 72.4** %

Structure (SMILES): COc1ccc2c(c1)CCN1CC[C@@H](N(C)S(=O)(=O)c3cc(OC)ccc3OC)C[C@@H]21.Cl (racemic) [Compound No. 14, N-methyl-N-[(2RS,11bSR)-9-methoxy-1,3,4,6,7,11b-hexahydro-2H-benzo[a]quinolizin-2-yl]-2,5-dimethoxybenzenesulfonamide hydrochloride]
- Inhibition (%) vs. control [3]: 75.6** %

Structure (SMILES): COc1ccc2c(c1)CCN1CC[C@@H](N(C)S(=O)(=O)N(C)C)C[C@@H]21.Cl (racemic) [Compound No. 16, N,N-Dimethyl-N'-[(2RS-11bSR)-9-methoxy-1,3,4,6,7,11b-hexahydro-2H-benzo[a]quinolizin-2-yl]-N'-methylsulfamide hydrochloride]
- Inhibition (%) vs. control [1, 5]: 73.3** %
- Inhibition (%) vs. control [1, 6]: 91.7** %
- Dead/Total ([4]; 300 mg/kg orally): 0/5

Structure (SMILES): COc1ccc2c(c1)CCN1CC[C@@H](N(C)S(C)(=O)=O)C[C@@H]21.Cl [Compound No. 18, N-Methyl-N-[(2R,11bS)-9-methoxy-1,3,4,6,7,11b-hexahydro-2H-benzo[a]quinolizin-2-yl]methanesulfonamide hydrochloride]
- Inhibition (%) vs. control ([3]; hydrochloride): 96.6** %
- Inhibition (%) vs. control [1, 8]: 91.1** %
- Inhibition (%) vs. control ([2]; 3 mg/kg orally 60 minutes before water avoidance stress): 72.4* %
- Inhibition (%) vs. control ([2]; 10 mg/kg orally 60 minutes before water avoidance stress): 82.9** %
- Dead/Total ([4]; 250 mg/kg orally): 0/5

Structure (SMILES): CCS(=O)(=O)N(C)[C@@H]1CCN2CCc3cc(OC)ccc3[C@@H]2C1.Cl [Compound No. 20, N-Methyl-N-[(2R,11bS)-9-methoxy-1,3,4,6,7,11b-hexahydro-2H-benzo[a]quinolizin-2-yl]ethanesulfonamide hydrochloride]
- Inhibition (%) vs. control [1, 5]: 69.4** %
- Inhibition (%) vs. control [1, 6]: 88.9** %

Structure (SMILES): CCN([C@@H]1CCN2CCc3cc(OC)ccc3[C@@H]2C1)S(C)(=O)=O.Cl [Compound No. 21, N-Ethyl-N-[(2R,11bS)-9-methoxy-1,3,4,6,7,11b-hexahydro-2H-benzo[a]quinolizin-2-yl]methanesulfonamide hydrochloride]
- Inhibition (%) vs. control [1, 5]: 64.6** %
- Inhibition (%) vs. control [1, 6]: 92.6** %
- Dead/Total ([4]; 250 mg/kg orally): 0/5

Reference: EP0897923A1, “BENZOQUINOLIZINE DERIVATIVES AND MEDICINAL COMPOSITIONS” (priority 1996, dated 1997)
